From ChEMBL document CHEMBL1127015, “Centrally acting serotonergic and dopaminergic agents. 1. Synthesis and structure-activity relationships of 2,3,3a,4,5,9b-hexahydro-1H-benz[e]indole derivatives” (J Med Chem, 1993)
Several values for one entry are separate records, joined by “and”; a condition that tells them apart may be missing. Equal entries are not always repeated.

Legend:
D(2) dopamine receptor [1] = molecular target: T1, D(2) dopamine receptor (Rattus norvegicus, UniProt P61169); test: Inhibitory concentration against [3H]raclopride-labeled dopamine receptor D2 in rat striatum; assay type: tissue-based
T1 sequence (P61169 whole entry): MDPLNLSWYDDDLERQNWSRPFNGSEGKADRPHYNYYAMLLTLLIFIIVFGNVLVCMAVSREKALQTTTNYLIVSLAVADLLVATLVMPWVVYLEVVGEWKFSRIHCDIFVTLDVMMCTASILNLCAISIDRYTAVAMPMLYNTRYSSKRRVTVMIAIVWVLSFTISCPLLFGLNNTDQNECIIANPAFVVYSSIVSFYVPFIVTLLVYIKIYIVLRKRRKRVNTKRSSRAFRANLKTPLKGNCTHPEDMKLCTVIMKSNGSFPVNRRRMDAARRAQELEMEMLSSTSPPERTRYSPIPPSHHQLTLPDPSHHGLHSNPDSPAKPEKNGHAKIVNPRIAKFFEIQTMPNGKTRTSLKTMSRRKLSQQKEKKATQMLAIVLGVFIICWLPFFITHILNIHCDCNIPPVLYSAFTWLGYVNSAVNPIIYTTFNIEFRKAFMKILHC

Mus musculus [2] = test: Antagonism of apomorphine in reserpinized mice when a dose of 4 micro mol/kg is administered intraperitoneally; assay type: functional
Mus musculus [3] = test: Antagonism of apomorphine for 0-10 minutes in reserpinized mice when a dose of 4 micro mol/kg is administered intraperitoneally; assay type: functional
Mus musculus [4] = test: Antagonism of apomorphine effects for 10-20 minutes in reserpinized mice following 0.4 umol/kg i.p.; assay type: functional
Mus musculus [5] = test: Ability to stimulate dopaminergic systems by effect on locomotor activity in reserpinized mice when a dose of 4 micro mol/kg is administered intraperitoneally; assay type: functional
Mus musculus [6] = test: Antagonism of apomorphine effects for 0-10 minutes in reserpinized mice following 0.4 umol/kg i.p.; assay type: functional; parameters: unit not given beside the values
Mus musculus [7] = test: Increase in locomotor activity in reserpinized mice following 0.4 umol/kg i.p.; assay type: functional
Mus musculus [8] = test: Antagonism of apomorphine for 10-20 minutes in reserpinized mice when a dose of 4 micro mol/kg is administered intraperitoneally; assay type: functional
Mus musculus [9] = test: Antagonism of apomorphine effects in reserpinized mice following 0.4 umol/kg i.p.; assay type: functional
D(2) dopamine receptor [10] = molecular target: T1, D(2) dopamine receptor; test: Compound was evaluated for the binding affinity against [3H]U-86,170-labeled dopamine receptor D2 in cloned CHO cells; assay type: cell-based
Mus musculus [11] = test: Antagonism of apomorphine for 0-10 minutes in reserpinized mice when a dose of 0.4 micro mol/kg is administered intraperitoneally (*,p<0.05); assay type: functional
Felis catus [12] = test: Maximum decrease of arterial blood pressure at sympathetic nerve activity (SND) in anesthetized cat has been observed following 1 mg/kg dose; assay type: functional; parameters: scale not given: the % may be the effect or the level left
Felis catus [13] = test: Maximum decrease of sympathetic nerve activity (SND) in anesthetized cat; assay type: functional; parameters: scale not given: the % may be the effect or the level left
Mus musculus [14] = test: Antagonism of apomorphine in reserpinized mice when a dose of 3.6 micro mol/kg is administered intraperitoneally; assay type: functional
Mus musculus [15] = test: Antagonism of apomorphine in reserpinized mice when a dose of 36 micro mol/kg is administered intraperitoneally; assay type: functional
Mus musculus [16] = test: Maximum decrease in temperature when compound is administered subcutaneously; assay type: functional
Mus musculus [17] = test: Antagonism of apomorphine for 10-20 minutes in reserpinized mice when a dose of 3.6 micro mol/kg is administered intraperitoneally; assay type: functional
Mus musculus [18] = test: Antagonism of apomorphine for 0-10 minutes in reserpinized mice when a dose of 3.6 micro mol/kg is administered intraperitoneally; assay type: functional
Mus musculus [19] = test: Antagonism of apomorphine for 0-10 minutes in reserpinized mice when a dose of 36 micro mol/kg is administered intraperitoneally; assay type: functional
Mus musculus [20] = test: Ability to stimulate dopaminergic systems by effect on locomotor activity in reserpinized mice when a dose of 3.6 micro mol/kg is administered intraperitoneally; assay type: functional
Mus musculus [21] = test: Ability to stimulate dopaminergic systems by effect on locomotor activity in reserpinized mice when a dose of 36 micro mol/kg is administered intraperitoneally; assay type: functional
Mus musculus [22] = test: Antagonism of apomorphine for 10-20 minutes in reserpinized mice when a dose of 36 micro mol/kg is administered intraperitoneally; assay type: functional
Rattus norvegicus [23] = test: Effect on the synthesis rates of dopamine (DOPA accumulation) in the rat ventral limbic brain region at 3.6 micro mol/kg; assay type: functional, Limbic system
Rattus norvegicus [24] = species: Rattus norvegicus; test: Effect on the synthesis rates of serotonin (5-HTP accumulation) in the rat ventral limbic brain region at 3.6uMkg.; assay type: functional, Limbic system
Rattus norvegicus [25] = test: Inhibition of firing rates of serotonergic neurons in the dorsal raphe nucleus by intravenous injection in rats; assay type: functional
Mus musculus [26] = test: Effective dose on hypothermia in mouse when administered subcutaneously; assay type: functional; conditions: sc
Mus musculus [27] = test: Effective dose on hypothermia in mouse when administered through peroral route; assay type: functional; conditions: po
Mus musculus [28] = test: Maximum decrease in temperature when compound is administered through peroral route; assay type: functional
D(2) dopamine receptor [29] = molecular target: T2, D(2) dopamine receptor (Homo sapiens, UniProt P14416); test: Intrinsic activity from GTP shift using membranes from CHO cells transfected with mammalian dopamine receptor D2.; assay type: cell membranes
T2 sequence (P14416 whole entry): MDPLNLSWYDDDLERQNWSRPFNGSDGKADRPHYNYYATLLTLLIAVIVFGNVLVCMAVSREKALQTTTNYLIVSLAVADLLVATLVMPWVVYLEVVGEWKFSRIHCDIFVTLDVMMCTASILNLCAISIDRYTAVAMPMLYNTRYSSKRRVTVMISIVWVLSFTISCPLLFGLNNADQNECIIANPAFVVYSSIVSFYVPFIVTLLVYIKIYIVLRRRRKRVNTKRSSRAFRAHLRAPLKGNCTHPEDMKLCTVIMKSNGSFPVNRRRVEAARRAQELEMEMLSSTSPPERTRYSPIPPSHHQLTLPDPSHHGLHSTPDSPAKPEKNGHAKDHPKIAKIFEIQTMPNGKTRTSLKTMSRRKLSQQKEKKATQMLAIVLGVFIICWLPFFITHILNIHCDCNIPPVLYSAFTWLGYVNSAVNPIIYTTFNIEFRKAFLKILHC

D(2) dopamine receptor [30] = molecular target: T2, D(2) dopamine receptor; test: Binding affinity against [3H]U-86,170-labeled dopamine receptor D2 in cloned CHO cells; assay type: cell-based
Rattus norvegicus [31] = species: Rattus norvegicus; test: Effect on the synthesis rates of serotonin (5-HTP accumulation) in the rat ventral limbic brain region at 3.6uMkg; assay type: functional, Limbic system
Mus musculus [32] = test: Time of effect in the face-to-face behavioral assay in the mouse when a dose of 0.0 micro mol/kg is administered perorally; assay type: functional
Mus musculus [33] = test: Time of effect in the face-to-face behavioral assay in the mouse when a dose of 0.4 micro mol/kg is administered perorally; assay type: functional
Mus musculus [34] = test: Time of effect in the face-to-face behavioral assay in the mouse when a dose of 3.6 micro mol/kg is administered perorally; assay type: functional
Mus musculus [35] = test: Time of effect in the isolation-induced aggression behavioral assay in the mouse when a dose of 11 micro mol/kg is administered perorally; assay type: functional
Mus musculus [36] = test: Time of effect in the isolation-induced aggression behavioral assay in the mouse when a dose of 3.6 micro mol/kg is administered perorally; assay type: functional
Mus musculus [37] = test: Time of effect in the isolation-induced aggression behavioral assay in the mouse when a dose of 36 micro mol/kg is administered perorally; assay type: functional
Mus musculus [38] = test: Time of effect in the isolation-induced aggression behavioral assay in the mouse when a dose of 0.0 micro mol/kg is administered perorally; assay type: functional
Mus musculus [39] = test: Time of effect in the face-to-face behavioral assay in the mouse when a dose of 36 micro mol/kg is administered perorally; assay type: functional
Rattus norvegicus [40] = test: Inhibition of firing rates of dopaminergic neurons in the substantia nigra pars compacta by intravenous injection in rats.; assay type: functional; conditions: Rattus norvegicus, Substantia nigra pars compacta, iv; read-out: ED50
Rattus norvegicus [41] = test: Inhibition of firing rates of serotonergic neurons in the dorsal raphe nucleus by intravenous injection in rats.; assay type: functional

CCCN1CC[C@@H]2c3ccccc3CC[C@H]21 (racemic)
IC50 (D(2) dopamine receptor [1]): > 1000 nM
Locomotor activity (Mus musculus [2]): 48
Locomotor activity (Mus musculus [3]): 22
Locomotor activity (Mus musculus [4]): 61
Locomotor activity (Mus musculus [5]): 15
Locomotor activity (Mus musculus [6]): 41
Locomotor activity (Mus musculus [7]): 22
Locomotor activity (Mus musculus [8]): 46
Locomotor activity (Mus musculus [9]): 55

CCCN1CC[C@H]2c3ccccc3CC[C@H]21 (racemic)
Ki (D(2) dopamine receptor [10]): 548 nM
Locomotor activity (Mus musculus [4]): 76
Locomotor activity (Mus musculus [11]): 56
Locomotor activity (Mus musculus [7]): 15
Locomotor activity (Mus musculus [9]): 128

C=CCN1CC[C@H]2c3c(cccc3OC)CC[C@H]21 (racemic)
Control (Felis catus [12]): 59%
Control (Felis catus [13]): 189%
Locomotor activity (Mus musculus [14]): 6
Locomotor activity (Mus musculus [15]): 4
Max temperature decrease (Mus musculus [16]): 4.2
Locomotor activity (Mus musculus [4]): 94
Locomotor activity (Mus musculus [17]): 94
Locomotor activity (Mus musculus [6]): 96
Locomotor activity (Mus musculus [18]): 121
Locomotor activity (Mus musculus [19]): 54
Locomotor activity (Mus musculus [20]): 37
Locomotor activity (Mus musculus [21]): 70
Locomotor activity (Mus musculus [7]): 6
Locomotor activity (Mus musculus [22]): 45
Control (Rattus norvegicus [23]): 48%
Control (Rattus norvegicus [24]): -52%
ED50 (Rattus norvegicus [25]): 0.04 µmol/kg
Locomotor activity (Mus musculus [9]): 55
ED50 (Mus musculus [26]): 8.2 µmol/kg
ED50 (Mus musculus [27]): 101 µmol/kg
Max temperature decrease (Mus musculus [28]): 3.6

C=CCN1CC[C@@H]2c3c(cccc3OC)CC[C@H]21 (racemic)
Intrinsic activity (D(2) dopamine receptor [29]): 0%
Ki (D(2) dopamine receptor [30]): 8.5 nM
Locomotor activity (Mus musculus [14]): 30
Locomotor activity (Mus musculus [15]): 5
Max temperature decrease (Mus musculus [16]): 4.5
Locomotor activity (Mus musculus [4]): 65
Locomotor activity (Mus musculus [17]): 57
Locomotor activity (Mus musculus [6]): 65
Locomotor activity (Mus musculus [18]): 65
Locomotor activity (Mus musculus [19]): 40
Locomotor activity (Mus musculus [20]): 11
Locomotor activity (Mus musculus [21]): 48
Locomotor activity (Mus musculus [7]): 36
Locomotor activity (Mus musculus [22]): 32
Control (Rattus norvegicus [31]): 158%
Control (Rattus norvegicus [24]): -28%
Locomotor activity (Mus musculus [9]): 140
ED50 (Mus musculus [26]): 40 µmol/kg

C=CCN1CCC2c3c(cccc3OC)CC[C@H]21 (single isomer, unassigned; (-))
Control (Felis catus [12]): 55%
Control (Felis catus [13]): 385%
Intrinsic activity (D(2) dopamine receptor [29]): 24%
Ki (D(2) dopamine receptor [30]): 6.7 nM
Locomotor activity (Mus musculus [14]): 14
Locomotor activity (Mus musculus [15]): 11
Time (Mus musculus [32]): 1.2 s
Time (Mus musculus [33]): 0.9 s
Time (Mus musculus [34]): 1.3 s
Time (Mus musculus [35]): 40 s
Time (Mus musculus [36]): 85 s
Time (Mus musculus [37]): 236 s
Locomotor activity (Mus musculus [4]): 45
Locomotor activity (Mus musculus [17]): 49
Time (Mus musculus [38]): 18 s and 27 s
Time (Mus musculus [39]): 1.4 s
Locomotor activity (Mus musculus [6]): 29
Locomotor activity (Mus musculus [18]): 52
Locomotor activity (Mus musculus [19]): 24
Locomotor activity (Mus musculus [20]): 79
Locomotor activity (Mus musculus [21]): 52
Locomotor activity (Mus musculus [7]): 7
Locomotor activity (Mus musculus [22]): 18
ED50 (Rattus norvegicus [40]): 0.04 µmol/kg
ED50 (Rattus norvegicus [41]): 0.007 µmol/kg
Locomotor activity (Mus musculus [9]): 50
